One experiment deals with bromodomain. Description: at least one of the bromodomain cell assays of Example 57. The class given is cell-based. Conditions: at least one of the bromodomain cell assays described in Example 57; read-out: IC50 in at least one of the bromodomain cell assays.
In the next experiment the test system is MV-4-11 cells. Description: Oncology cell growth assay MV-4-11 (CellTiter Glo). The class given is cell-based. Conditions: Homo sapiens, MV4-11, 72 h, read-out: Cell activity (IC50 μM) MV-4-11 3d-Growth. Summed up: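 Growth read by CellTiter Glo luminescence after 72 h compound treatment of MLL-AF4-bearing MV-4-11 cells (3000/well). Titration: 8 points, 1:3 steps, maximum 10 μM, 0.2% DMSO final. Data normalized to DMSO wells, four-parameter fit gives pIC50.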
In general terms: Cellular ATP, detected with luciferase, serves as a proxy for viable cell number.

For a further experiment, the target named is BRD4-BD12 (1-477) (Homo sapiens (Human), UniProt O60885). Description: Alphascreen binding assay BRD4-BD12. Conditions: BRD4(1 2) H4; read-out: Biochemical activity (IC50 μM) BRD4(1 2) H4. Summed up:
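In this competition format, compounds displace a biotinylated tetra-acetyl H4 peptide from E. coli-expressed human BRD4 bromodomain constructs captured on nickel chelate beads. The reaction runs at pH 7.5 with 2 mM DTT and detergent for 1 h at room temperature before a 30 min bead step.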
On the technique in general: Alpha assays give light when donor and acceptor beads are brought close together.

Read-outs that look alike come from different tables or passages of the source.

Take `Cc1noc(C)c1-c1cnc2c(-c3ccc(C4(C(=O)O)CC4)cc3)cn(CC3CCC(F)(F)CC3)c2c1` [P-0412, 1-[4-[1-[(4,4-difluorocyclohexyl)methyl]-6-(3,5-dimethylisoxazol-4-yl)pyrrolo[3,2-b]pyridin-3-yl]phenyl]cyclopropanecarboxylic acid]: the results for the IC50 in the experiment with bromodomain, in the experiment with MV-4-11 cells and on BRD4-BD12 (1-477) were < 10000 nM, < 1 µM and < 1 µM, respectively.
For the compound `Cc1noc(C)c1-c1cnc2c(-c3ccc(CC(=O)O)cc3)cn(CC3CCC(F)(F)CC3)c2c1` [P-0413, 2-[4-[1-[(4,4-difluorocyclohexyl)methyl]-6-(3,5-dimethylisoxazol-4-yl)pyrrolo[3,2-b]pyridin-3-yl]phenyl]acetic acid], the IC50 (usually the midpoint of a concentration-inhibition curve) is < 10000 nM in the experiment on bromodomain, < 1 µM in the experiment on MV-4-11 cells and < 1 µM at BRD4-BD12 (1-477).
On to `Cc1noc(C)c1-c1cnc2c(-c3ccc(F)c(C(=O)O)c3)cn(CC3CCC(F)(F)CC3)c2c1` [P-0414, 5-[1-[(4,4-difluorocyclohexyl)methyl]-6-(3,5-dimethylisoxazol-4-yl)pyrrolo[3,2-b]pyridin-3-yl]-2-fluoro-benzoic acid], for which the half-maximal inhibitory concentration (IC50) is < 10000 nM in the experiment with bromodomain, < 1 µM in the experiment on MV-4-11 cells and < 1 µM at BRD4-BD12 (1-477).
With `Cc1ccc(-c2cn(CC3CCC(F)(F)CC3)c3cc(-c4c(C)noc4C)cnc23)cc1C(=O)O` [P-0415, 5-[1-[(4,4-difluorocyclohexyl)methyl]-6-(3,5-dimethylisoxazol-4-yl)pyrrolo[3,2-b]pyridin-3-yl]-2-methyl-benzoic acid], the IC50 with bromodomain is < 10000 nM; in the experiment with MV-4-11 cells it was < 1 µM; on BRD4-BD12 (1-477), < 1 µM.
For `Cc1noc(C)c1-c1cnc2c(-c3ccc(C(=O)O)c(F)c3F)cn(CC3CCC(F)(F)CC3)c2c1` [P-0416, 4-[1-[(4,4-difluorocyclohexyl)methyl]-6-(3,5-dimethylisoxazol-4-yl)pyrrolo[3,2-b]pyridin-3-yl]-2,3-difluoro-benzoic acid], the 50% inhibitory concentration (IC50) was < 10000 nM with bromodomain, < 1 µM in the experiment on MV-4-11 cells and < 1 µM on BRD4-BD12 (1-477).
As to `Cc1noc(C)c1-c1cnc2c(-c3ccc(C(=O)O)cc3F)cn(CC3CCC(F)(F)CC3)c2c1` [P-0417, 4-[1-[(4,4-difluorocyclohexyl)methyl]-6-(3,5-dimethylisoxazol-4-yl)pyrrolo[3,2-b]pyridin-3-yl]-3-fluoro-benzoic acid], the results for the IC50 in the experiment with bromodomain, in the experiment on MV-4-11 cells and on BRD4-BD12 (1-477) were < 10000 nM, < 1 µM and < 1 µM, respectively.
In the case of `COC(=O)c1ccc(-c2cn(CC3CCC(F)(F)CC3)c3cc(-c4c(C)noc4C)cnc23)cn1` [P-0418, methyl 5-[1-[(4,4-difluorocyclohexyl)methyl]-6-(3,5-dimethylisoxazol-4-yl)pyrrolo[3,2-b]pyridin-3-yl]pyridine-2-carboxylate], the IC50 in the experiment on bromodomain was < 10000 nM; in the experiment on MV-4-11 cells, < 1 µM; at BRD4-BD12 (1-477), < 1 µM.
Regarding `Cc1nnn(C)c1-c1cnc2c(-c3cnn(C(F)F)c3)cn(CC3(F)CCC(F)(F)CC3)c2c1` [P-0419, 3-[1-(difluoromethyl)pyrazol-4-yl]-6-(3,5-dimethyltriazol-4-yl)-1-[(1,4,4-trifluorocyclohexyl)methyl]pyrrolo[3,2-b]pyridine], the IC50 is < 10000 nM in the experiment with bromodomain, < 1 µM in the experiment with MV-4-11 cells and < 1 µM at BRD4-BD12 (1-477).
In the case of `Cc1nnc(C)n1-c1cnc2c(-c3ccc(C(=O)O)cc3)cn(CC3CCC(F)(F)CC3)c2c1` [P-0420, 4-[1-[(4,4-difluorocyclohexyl)methyl]-6-(3,5-dimethyl-1,2,4-triazol-4-yl)pyrrolo[3,2-b]pyridin-3-yl]benzoic acid], the results for the IC50 in the experiment with bromodomain, with MV-4-11 cells and on BRD4-BD12 (1-477) were < 10000 nM, 10 to 200 µM and < 1 µM, respectively.
As to `Cc1nnn(C)c1-c1cnc2c(-c3cnn(C)c3)cn(CC3(F)CCC(F)(F)CC3)c2c1` [P-0424, 6-(3,5-dimethyltriazol-4-yl)-3-(1-methylpyrazol-4-yl)-1-[(1,4,4-trifluorocyclohexyl)methyl]pyrrolo[3,2-b]pyridine], the IC50 in the experiment with bromodomain is < 10000 nM; in the experiment on MV-4-11 cells it was < 1 µM; on BRD4-BD12 (1-477) it was < 1 µM.
For the compound `CCn1cc(-c2cn(CC3CCC(F)(F)CC3)c3cc(-c4c(C)nnn4C)cnc23)cn1` [P-0427, 1-[(4,4-difluorocyclohexyl)methyl]-6-(3,5-dimethyltriazol-4-yl)-3-(1-ethylpyrazol-4-yl)pyrrolo[3,2-b]pyridine], the half-maximal inhibitory concentration (IC50) in the experiment on bromodomain was < 10000 nM; in the experiment on MV-4-11 cells (MV-4-11, 3d growth), < 1 µM; on BRD4-BD12 (1-477), < 1 µM.
`Cc1noc(C)c1-c1cnc2c(c1)c(Cc1ccccc1Cl)cn2-c1ccc(C(=O)O)cn1` [P-0428, 6-[3-[(2-chlorophenyl)methyl]-5-(3,5-dimethylisoxazol-4-yl)pyrrolo[2,3-b]pyridin-1-yl]pyridine-3-carboxylic acid]: the concentration for half-maximal inhibition (IC50) was < 10000 nM in the experiment with bromodomain; 1 to 10 µM in the experiment with MV-4-11 cells (MV-4-11, 3d growth); < 1 µM on BRD4-BD12 (1-477).
Consider `CCOC(=O)c1ccc(-n2cc(CC3CCC(F)(F)CC3)c3cc(-c4c(C)noc4C)cnc32)nc1` [P-0429, ethyl 6-[3-[(4,4-difluorocyclohexyl)methyl]-5-(3,5-dimethylisoxazol-4-yl)pyrrolo[2,3-b]pyridin-1-yl]pyridine-3-carboxylate], for which the IC50 in the experiment with bromodomain is < 10000 nM; in the experiment with MV-4-11 cells (MV-4-11, 3d growth), 1 to 10 µM; on BRD4-BD12 (1-477) it was < 1 µM.
The matching figures for `Cc1noc(C)c1-c1cnc2c(c1)c(CC1CCC(F)(F)CC1)cn2-c1ccc(C(=O)O)cn1` [P-0430, 6-[3-[(4,4-difluorocyclohexyl)methyl]-5-(3,5-dimethylisoxazol-4-yl)pyrrolo[2,3-b]pyridin-1-yl]pyridine-3-carboxylic acid]: < 10000 nM, < 1 µM and < 1 µM.
As for `Cc1noc(C)c1-c1cnc2c(-c3ccc(C(=O)O)cc3)cn(Cc3ccccn3)c2c1` [P-0431, 4-[6-(3,5-dimethylisoxazol-4-yl)-1-(2-pyridylmethyl)pyrrolo[3,2-b]pyridin-3-yl]benzoic acid], the IC50 in the experiment on bromodomain is < 10000 nM; in the experiment with MV-4-11 cells (MV-4-11, 3d growth), < 1 µM; at BRD4-BD12 (1-477), < 1 µM.
Take `Cc1noc(C)c1-c1cnc2c(-c3ccc(C(=O)O)cc3)cn(CC3CC(F)(F)C3)c2c1` [P-0432, 4-[1-[(3,3-difluorocyclobutyl)methyl]-6-(3,5-dimethylisoxazol-4-yl)pyrrolo[3,2-b]pyridin-3-yl]benzoic acid]: the half-inhibitory concentration (IC50) is < 10000 nM in the experiment with bromodomain; < 1 µM in the experiment with MV-4-11 cells (MV-4-11, 3d growth); < 1 µM at BRD4-BD12 (1-477).
On to `Cc1noc(C)c1-c1cnc2c(-c3ccc(C(C)(C)C(=O)O)cc3)cn(CC3CCC(F)(F)CC3)c2c1` [P-0433, 2-[4-[1-[(4,4-difluorocyclohexyl)methyl]-6-(3,5-dimethylisoxazol-4-yl)pyrrolo[3,2-b]pyridin-3-yl]phenyl]-2-methyl-propanoic acid], for which the IC50 with bromodomain was < 10000 nM; in the experiment with MV-4-11 cells (MV-4-11, 3d growth), < 1 µM; on BRD4-BD12 (1-477) it was < 1 µM.
With `Cc1noc(C)c1-c1cnc2c(-c3ccc(C#N)cc3)cn(CC3CCC(F)(F)CC3)c2c1` [P-0434, 4-[1-[(4,4-difluorocyclohexyl)methyl]-6-(3,5-dimethylisoxazol-4-yl)pyrrolo[3,2-b]pyridin-3-yl]benzonitrile], the IC50 was < 10000 nM in the experiment on bromodomain; < 1 µM in the experiment on MV-4-11 cells (MV-4-11, 3d growth); < 1 µM on BRD4-BD12 (1-477).
`COC(=O)c1ccc(-c2cn(Cc3ccccn3)c3cc(-c4c(C)noc4C)cnc23)cc1` [P-0435, methyl 4-[6-(3,5-dimethylisoxazol-4-yl)-1-(2-pyridylmethyl)pyrrolo[3,2-b]pyridin-3-yl]benzoate]: the IC50 with bromodomain is < 10000 nM; in the experiment on MV-4-11 cells (MV-4-11, 3d growth), < 1 µM; on BRD4-BD12 (1-477), < 1 µM.
Regarding `Cn1cc(-c2cnc3c(-c4cnn(CC(F)(F)F)c4)cn(CC4CCC(F)(F)CC4)c3c2)ccc1=O` [P-0436, 5-[1-[(4,4-difluorocyclohexyl)methyl]-3-[1-(2,2,2-trifluoroethyl)pyrazol-4-yl]pyrrolo[3,2-b]pyridin-6-yl]-1-methyl-pyridin-2-one], the IC50 in the experiment on bromodomain was < 10000 nM; with MV-4-11 cells (MV-4-11, 3d growth), < 1 µM; on BRD4-BD12 (1-477) it was < 1 µM.
As for `Cn1cc(-c2cn(CC3CCC(F)(F)CC3)c3cc(-c4ccc(O)nc4)cnc23)cn1` [P-0437, 5-[1-[(4,4-difluorocyclohexyl)methyl]-3-(1-methylpyrazol-4-yl)pyrrolo[3,2-b]pyridin-6-yl]pyridin-2-ol], the half-inhibitory concentration (IC50) in the experiment on bromodomain is < 10000 nM; in the experiment with MV-4-11 cells (MV-4-11, 3d growth) it was < 1 µM; at BRD4-BD12 (1-477), < 1 µM.
Consider `Cn1cc(-c2cn(CC3CCC(F)(F)CC3)c3cc(-c4ccc(=O)n(C)c4)cnc23)cn1` [P-0438, 5-[1-[(4,4-difluorocyclohexyl)methyl]-3-(1-methylpyrazol-4-yl)pyrrolo[3,2-b]pyridin-6-yl]-1-methyl-pyridin-2-one], for which the IC50 with bromodomain is < 10000 nM; in the experiment on MV-4-11 cells (MV-4-11, 3d growth) it was < 1 µM; on BRD4-BD12 (1-477) it was < 1 µM.
As for `Cc1n[nH]c(C)c1-c1cnc2c(-c3cnn(CC(F)(F)F)c3)cn(CC3CCC(F)(F)CC3)c2c1` [P-0440], the IC50 in the experiment on bromodomain was < 10000 nM; in the experiment on MV-4-11 cells (MV-4-11, 3d growth), < 1 µM; on BRD4-BD12 (1-477), < 1 µM.
Consider `CCOC(=O)c1ccc(-n2cc(CC3CCC(F)(F)CC3)c3cc(-c4c(C)noc4C)cnc32)c(F)c1` [P-0441, ethyl 4-[3-[(4,4-difluorocyclohexyl)methyl]-5-(3,5-dimethylisoxazol-4-yl)pyrrolo[2,3-b]pyridin-1-yl]-3-fluoro-benzoate], for which the IC50 with bromodomain was < 10000 nM; in the experiment with MV-4-11 cells (MV-4-11, 3d growth), 1 to 10 µM; on BRD4-BD12 (1-477), < 1 µM.
